Common to all, as to experiment: relative viability (nuclei count vs DMSO), 5 days (fraction); higher = more cells survive
Compound in the assay “17-AAG + Decitabine”: C=CCNC1=C2C[C@@H](C)C[C@H](OC)[C@H](O)[C@@H](C)/C=C(\C)[C@H](OC(N)=O)[C@@H](OC)/C=C\C=C(/C)C(=O)NC(=CC1=O)C2=O [17-AAG] + Nc1ncn([C@H]2C[C@H](O)[C@@H](CO)O2)c(=O)n1 [Decitabine] (partner 2 µM)
The method in brief:
(§1)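 The day after seeding in 1536-well plates, lung cancer cell lines were treated by pin tool with a single drug, or with a fixed anchor-drug dose together with five library-drug doses (not always all listed) in √10 steps. After 5 days, a combined fix-and-stain solution (final 0.05% Triton X-100, 1% formaldehyde, 1 ug/ml Hoechst) was added. Nuclei counted on 4× images gave relative viability as treated counts over vehicle counts, reported as the median of duplicate plates.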

Compound in the assay “17-AAG + Dasatinib”: C=CCNC1=C2C[C@@H](C)C[C@H](OC)[C@H](O)[C@@H](C)/C=C(\C)[C@H](OC(N)=O)[C@@H](OC)/C=C\C=C(/C)C(=O)NC(=CC1=O)C2=O [17-AAG] + Cc1nc(Nc2ncc(C(=O)Nc3c(C)cccc3Cl)s2)cc(N2CCN(CCO)CC2)n1 [Dasatinib] (partner 0.075 µM)
The procedure, abridged: as §1

Compound in the assay “17-AAG + Foretinib”: C=CCNC1=C2C[C@@H](C)C[C@H](OC)[C@H](O)[C@@H](C)/C=C(\C)[C@H](OC(N)=O)[C@@H](OC)/C=C\C=C(/C)C(=O)NC(=CC1=O)C2=O [17-AAG] + COc1cc2c(Oc3ccc(NC(=O)C4(C(=O)Nc5ccc(F)cc5)CC4)cc3F)ccnc2cc1OCCCN1CCOCC1 [Foretinib] (partner 0.25 µM)
The procedure, abridged: as §1

Compound in the assay “17-AAG + Luminespib”: C=CCNC1=C2C[C@@H](C)C[C@H](OC)[C@H](O)[C@@H](C)/C=C(\C)[C@H](OC(N)=O)[C@@H](OC)/C=C\C=C(/C)C(=O)NC(=CC1=O)C2=O [17-AAG] + CCNC(=O)c1noc(-c2cc(C(C)C)c(O)cc2O)c1-c1ccc(CN2CCOCC2)cc1 [Luminespib] (partner 0.01 µM)
The procedure, abridged: as §1

With HCC-78, the relative viability was found to be 0.511 with 17-AAG + Decitabine (first compound 0.00128 µM); 0.841 with 17-AAG + Decitabine (first compound 0.004048 µM); 0.695 in the assay with 17-AAG + Decitabine (first compound 0.0128 µM); 0.465 in the assay with 17-AAG + Decitabine (first compound 0.04048 µM); 0.369 with 17-AAG + Decitabine (first compound 0.128 µM); 0.358 with 17-AAG + Dasatinib (first compound 0.00128 µM). Further, the relative viability in the assay with 17-AAG + Dasatinib (first compound 0.004048 µM) is 0.508; in the assay with 17-AAG + Dasatinib (first compound 0.0128 µM), 0.403; with 17-AAG + Dasatinib (first compound 0.04048 µM), 0.359; with 17-AAG + Dasatinib (first compound 0.128 µM) it was 0.193; with 17-AAG + Foretinib (first compound 0.00128 µM), 0.525; with 17-AAG + Foretinib (first compound 0.004048 µM) it was 0.574. The relative viability with 17-AAG + Foretinib (first compound 0.0128 µM) is 0.611; in the assay with 17-AAG + Foretinib (first compound 0.04048 µM), 0.516; with 17-AAG + Foretinib (first compound 0.128 µM) it was 0.499.

Take HCC-366: the relative viability came to 0.306 with 17-AAG + Decitabine (first compound 0.00128 µM); 0.393 with 17-AAG + Decitabine (first compound 0.004048 µM); 0.08 in the assay with 17-AAG + Decitabine (first compound 0.0128 µM); 0.0528 with 17-AAG + Decitabine (first compound 0.04048 µM); 0.0434 with 17-AAG + Decitabine (first compound 0.128 µM); 0.726 in the assay with 17-AAG + Dasatinib (first compound 0.00128 µM). The relative viability with 17-AAG + Dasatinib (first compound 0.004048 µM) is 0.654; with 17-AAG + Dasatinib (first compound 0.0128 µM), 0.0387; with 17-AAG + Dasatinib (first compound 0.04048 µM), 0.0326; in the assay with 17-AAG + Dasatinib (first compound 0.128 µM), 0.0293; with 17-AAG + Foretinib (first compound 0.00128 µM) it was 0.958; in the assay with 17-AAG + Foretinib (first compound 0.004048 µM), 0.968. For the same cell line, the relative viability with 17-AAG + Foretinib (first compound 0.0128 µM) is 0.89; with 17-AAG + Foretinib (first compound 0.04048 µM) it was 0.126; in the assay with 17-AAG + Foretinib (first compound 0.128 µM) it was 0.0491.

As to HCC-827, the relative viability with 17-AAG + Luminespib (first compound 0.00128 µM) came out at 0.579; in the assay with 17-AAG + Luminespib (first compound 0.004048 µM) it was 0.706; in the assay with 17-AAG + Luminespib (first compound 0.0128 µM) it was 0.652; with 17-AAG + Luminespib (first compound 0.128 µM), 0.291; with 17-AAG + Decitabine (first compound 0.00128 µM), 0.279; with 17-AAG + Decitabine (first compound 0.004048 µM), 0.363. The relative viability in the assay with 17-AAG + Decitabine (first compound 0.0128 µM) amounted to 0.308; in the assay with 17-AAG + Decitabine (first compound 0.128 µM), 0.306; with 17-AAG + Dasatinib (first compound 0.00128 µM) it was 0.332; with 17-AAG + Dasatinib (first compound 0.004048 µM), 0.39; with 17-AAG + Dasatinib (first compound 0.0128 µM) it was 0.253; in the assay with 17-AAG + Dasatinib (first compound 0.128 µM), 0.32. For the same cell line, the relative viability in the assay with 17-AAG + Foretinib (first compound 0.00128 µM) was found to be 1.06; with 17-AAG + Foretinib (first compound 0.004048 µM), 0.978; in the assay with 17-AAG + Foretinib (first compound 0.0128 µM), 1.03; with 17-AAG + Foretinib (first compound 0.128 µM), 0.727.

As to HOP-62, the relative viability with 17-AAG + Luminespib (first compound 0.00128 µM) is 0.928; in the assay with 17-AAG + Luminespib (first compound 0.004048 µM), 0.806; in the assay with 17-AAG + Luminespib (first compound 0.0128 µM), 0.919; with 17-AAG + Luminespib (first compound 0.04048 µM) it was 0.36; in the assay with 17-AAG + Luminespib (first compound 0.128 µM), 0.136; with 17-AAG + Decitabine (first compound 0.00128 µM), 0.24. The relative viability was 0.238 with 17-AAG + Decitabine (first compound 0.004048 µM); 0.25 in the assay with 17-AAG + Decitabine (first compound 0.0128 µM); 0.167 with 17-AAG + Decitabine (first compound 0.04048 µM); 0.172 in the assay with 17-AAG + Decitabine (first compound 0.128 µM); 0.685 in the assay with 17-AAG + Dasatinib (first compound 0.00128 µM); 0.683 with 17-AAG + Dasatinib (first compound 0.004048 µM). Moreover, the relative viability was 0.485 in the assay with 17-AAG + Dasatinib (first compound 0.0128 µM); 0.175 with 17-AAG + Dasatinib (first compound 0.04048 µM); 0.1 in the assay with 17-AAG + Dasatinib (first compound 0.128 µM); 1.16 with 17-AAG + Foretinib (first compound 0.00128 µM); 1.05 in the assay with 17-AAG + Foretinib (first compound 0.004048 µM); 0.858 with 17-AAG + Foretinib (first compound 0.0128 µM). Also, the relative viability with 17-AAG + Foretinib (first compound 0.04048 µM) was determined as 0.549; with 17-AAG + Foretinib (first compound 0.128 µM), 0.382.

Regarding IA-LM, the relative viability with 17-AAG + Foretinib (first compound 0.00128 µM) is 1.21; with 17-AAG + Foretinib (first compound 0.004048 µM), 1.05; with 17-AAG + Foretinib (first compound 0.0128 µM), 1.19; with 17-AAG + Foretinib (first compound 0.04048 µM) it was 0.491; in the assay with 17-AAG + Foretinib (first compound 0.128 µM), 0.313.

Values taken from the supplement of paper PMC10307832.
